The subject of the test is CD2F1 mice, ip Colon 26 adenocarcinoma, median survival T/C. In words: NCI In Vivo Anticancer Drug Screen. Data for tumor model Colon 26 Adenocarcinoma (intraperitoneal) in CD2F1 (CDF1) mice. Particulars: endpoint: median survival time, higher = longer survival. How it is done:
The antitumor activity of compounds was measured in mice bearing transplantable tumors. Survival or tumor size were measured and the results are expressed as the measurement made in the treated group (T) divided by the measurement made in the vehicle treated control group (C). The tumor model used in this assay is Colon 26 Adenocarcinoma (intraperitoneal) in CD2F1 (CDF1) mice

Where [1] appears, read: dose: 12.5 mg/kg/injection, schedule: Q04DX003 (ip), vehicle: saline with Tween-80.
[2] abbreviates: dose: 25.0 mg/kg/injection, schedule: Q04DX003 (ip), vehicle: saline with Tween-80.
[3] abbreviates: dose: 50.0 mg/kg/injection, schedule: Q04DX003 (ip), vehicle: saline with Tween-80.
Where [4] appears, read: dose: 100.0 mg/kg/injection, schedule: Q04DX003 (ip), vehicle: saline with Tween-80.
Setting [5] is: dose: 200.0 mg/kg/injection, schedule: Q04DX003 (ip), vehicle: saline with Tween-80.
[6] abbreviates: dose: 4.0 mg/kg/injection, schedule: Q04DX003 (ip), vehicle: saline.
[7] abbreviates: dose: 8.0 mg/kg/injection, schedule: Q04DX003 (ip), vehicle: saline.
Where [8] appears, read: dose: 16.0 mg/kg/injection, schedule: Q04DX003 (ip), vehicle: saline.
Where [9] appears, read: dose: 400.0 mg/kg/injection, schedule: Q04DX003 (ip), vehicle: saline with Tween-80.
[10] abbreviates: dose: 16.0 mg/kg/injection, schedule: Q01DX009 (ip), vehicle: acid diluted with saline.
[11] abbreviates: dose: 32.0 mg/kg/injection, schedule: Q01DX009 (ip), vehicle: acid diluted with saline.
Setting [12] is: dose: 64.0 mg/kg/injection, schedule: Q01DX009 (ip), vehicle: acid diluted with saline.

Molecules are shown by their SMILES. Toxic doses and inconclusive results are not listed.

In the case of `Cc1cc(C)c(-c2cc(O)c(C)cc2O)c(C)c1`, the T/C was 107 % of control under setting [1]; 109 % of control under setting [2]; 106 % of control under setting [3]; 112 % of control under setting [4]; 112 % of control under setting [5].
Consider `Nc1ccc2nc3ccc(N)cc3[n+](-c3ccccc3)c2c1`, for which the T/C was 121 % of control under setting [6], 120 % of control under setting [7] and 120 % of control under setting [8].
Consider `Nc1ccc(Cl)cc1N`, for which the T/C runs as follows: (dose: 12.5 mg/kg/injection, schedule: Q04DX003 (ip), vehicle: saline + Tween-80 + alcohol) 96 % of control; under setting [1], 100 % of control; (dose: 25.0 mg/kg/injection, schedule: Q04DX003 (ip), vehicle: saline + Tween-80 + alcohol) 98 % of control; under setting [2], 100 % of control; (dose: 50.0 mg/kg/injection, schedule: Q04DX003 (ip), vehicle: saline + Tween-80 + alcohol) 102 % of control; under setting [3], 100 % of control. The T/C was 104 % of control (dose: 100.0 mg/kg/injection, schedule: Q04DX003 (ip), vehicle: saline + Tween-80 + alcohol); 102 % of control under setting [4]; 107 % of control (dose: 200.0 mg/kg/injection, schedule: Q04DX003 (ip), vehicle: saline + Tween-80 + alcohol); 106 % of control under setting [5]; 109 % of control under setting [9].
Turning to `CN(C)CCCNc1cccc2c1C(=O)c1cccc(NCCCN(C)C)c1C2=O`, the T/C runs as follows: (dose: 8.0 mg/kg/injection, schedule: Q01DX009 (ip), vehicle: saline) 106 % of control; (dose: 16.0 mg/kg/injection, schedule: Q01DX009 (ip), vehicle: saline) 100 % of control; (dose: 32.0 mg/kg/injection, schedule: Q01DX009 (ip), vehicle: saline) 87 % of control.
On to `CC1(CO)C(=O)CCC2(C)C1CCC1CC3CC12CCC3(O)CO` (stereo unspecified), for which the T/C was 97 % of control (dose: 37.5 mg/kg/injection, schedule: Q04DX002 (ip), vehicle: distilled water + Tween-80); 101 % of control (dose: 75.0 mg/kg/injection, schedule: Q04DX002 (ip), vehicle: distilled water + Tween-80); 94 % of control (dose: 150.0 mg/kg/injection, schedule: Q04DX002 (ip), vehicle: distilled water + Tween-80).
As to `O=C1c2ccccc2C(=O)c2c(NCCNCCNCCO)ccc(NCCNCCNCCO)c21`, the T/C was 102 % of control (dose: 8.0 mg/kg/injection, schedule: Q01DX009 (ip), vehicle: acid diluted with saline); 97 % of control under setting [10]; 107 % of control under setting [11]; 103 % of control under setting [12]; 87 % of control (dose: 128.0 mg/kg/injection, schedule: Q01DX009 (ip), vehicle: acid diluted with saline).
On to `N=C(N)SCc1c2ccccc2c(CSC(=N)N)c2ccccc12`, for which the T/C runs as follows: (dose: 12.5 mg/kg/injection, schedule: Q04DX003 (ip), vehicle: saline) 241 % of control; (dose: 25.0 mg/kg/injection, schedule: Q04DX003 (ip), vehicle: saline) 186 % of control; (dose: 50.0 mg/kg/injection, schedule: Q04DX003 (ip), vehicle: saline) 248 % of control; (dose: 100.0 mg/kg/injection, schedule: Q04DX003 (ip), vehicle: saline) 216 % of control; (dose: 200.0 mg/kg/injection, schedule: Q04DX003 (ip), vehicle: saline) 197 % of control.
Turning to `CC(=O)Nc1ccc(O)c(O)c1`, the T/C runs as follows: under setting [1], 94 % of control; under setting [2], 106 % of control; under setting [3], 96 % of control; under setting [4], 120 % of control; under setting [5], 100 % of control; under setting [9], 108 % of control.
For `COc1ccc2c(c1O)-c1cccc3c1[C@@H](C2)N(CCCl)CC3`, the T/C is 107 % of control (dose: 4.0 mg/kg/injection, schedule: Q04DX002 (ip), vehicle: Klucel (hydroxypropylcellulose) (HPC)); 119 % of control (dose: 8.0 mg/kg/injection, schedule: Q04DX002 (ip), vehicle: Klucel (hydroxypropylcellulose) (HPC)); 108 % of control (dose: 16.0 mg/kg/injection, schedule: Q04DX002 (ip), vehicle: Klucel (hydroxypropylcellulose) (HPC)); 124 % of control (dose: 32.0 mg/kg/injection, schedule: Q04DX002 (ip), vehicle: Klucel (hydroxypropylcellulose) (HPC)).
For `Nc1nc([Se])c2ncn(C3OC(CO)C(O)C3O)c2n1` (stereo unspecified), the T/C by setting is: under setting [6], 114 % of control; (dose: 4.0 mg/kg/injection, schedule: Q04DX003 (ip), vehicle: suspension in saline) 116 % of control; under setting [7], 104 % of control; (dose: 8.0 mg/kg/injection, schedule: Q04DX003 (ip), vehicle: suspension in saline) 106 % of control; under setting [8], 109 % of control; (dose: 16.0 mg/kg/injection, schedule: Q04DX003 (ip), vehicle: suspension in saline) 114 % of control. Further, the T/C (dose: 32.0 mg/kg/injection, schedule: Q04DX003 (ip), vehicle: saline) was 111 % of control; the T/C (dose: 32.0 mg/kg/injection, schedule: Q04DX003 (ip), vehicle: suspension in saline) was 116 % of control; the T/C (dose: 64.0 mg/kg/injection, schedule: Q04DX003 (ip), vehicle: saline) is 121 % of control; the T/C (dose: 64.0 mg/kg/injection, schedule: Q04DX003 (ip), vehicle: suspension in saline) was 114 % of control.
As for `O=C1c2ccccc2C(=O)c2c(NCCCNCCO)ccc(NCCCNCCO)c21`, the T/C is, setting by setting: under setting [10], 107 % of control; under setting [11], 111 % of control; under setting [12], 123 % of control.
For the compound `Nc1ncnc2c1ncn2C1OC(CO)C(O)C1O` (stereo unspecified), the T/C is, setting by setting: (dose: 50.0 mg/kg/injection, schedule: Q04DX002 (ip), vehicle: suspension in saline) 101 % of control; (dose: 64.0 mg/kg/injection, schedule: Q04DX002 (ip), vehicle: Klucel (hydroxypropylcellulose) (HPC)) 90 % of control; (dose: 100.0 mg/kg/injection, schedule: Q04DX002 (ip), vehicle: suspension in saline) 113 % of control; (dose: 128.0 mg/kg/injection, schedule: Q04DX002 (ip), vehicle: Klucel (hydroxypropylcellulose) (HPC)) 93 % of control; (dose: 200.0 mg/kg/injection, schedule: Q04DX002 (ip), vehicle: suspension in saline) 108 % of control; (dose: 256.0 mg/kg/injection, schedule: Q04DX002 (ip), vehicle: Klucel (hydroxypropylcellulose) (HPC)) 91 % of control. Moreover, the T/C is 107 % of control (dose: 400.0 mg/kg/injection, schedule: Q04DX002 (ip), vehicle: suspension in saline); 122 % of control (dose: 800.0 mg/kg/injection, schedule: Q04DX002 (ip), vehicle: suspension in saline); 98 % of control (dose: 1024.0 mg/kg/injection, schedule: Q04DX002 (ip), vehicle: Klucel (hydroxypropylcellulose) (HPC)).
As for `CC(C)CCC[C@@H](C)[C@H]1CC[C@H]2[C@@H]3CC=C4C[C@@H](OC(=O)Cc5ccc(N(CCCl)CCCl)cc5)CC[C@]4(C)[C@H]3CC[C@]12C`, the T/C by setting is: (dose: 50.0 mg/kg/injection, schedule: Q04DX002 (ip), vehicle: Klucel (hydroxypropylcellulose) (HPC)) 91 % of control; (dose: 100.0 mg/kg/injection, schedule: Q04DX002 (ip), vehicle: Klucel (hydroxypropylcellulose) (HPC)) 101 % of control; (dose: 200.0 mg/kg/injection, schedule: Q04DX002 (ip), vehicle: Klucel (hydroxypropylcellulose) (HPC)) 101 % of control; (dose: 400.0 mg/kg/injection, schedule: Q04DX002 (ip), vehicle: Klucel (hydroxypropylcellulose) (HPC)) 101 % of control.
